Source: ChEMBL document CHEMBL5505983, “Design, synthesis, and molecular modeling studies of novel 2-quinolone-1,2,3-triazole-α-aminophosphonates hybrids as dual antiviral and antibacterial agents” (Eur J Med Chem, 2024)
In brackets after ≈: the same amount, converted by molar mass.

Tests used:
[1] = system: Pseudomonas aeruginosa; assay: Antibacterial activity against Pseudomonas aeruginosa CIP A22 assessed as reduction in bacterial growth by micro-broth dilution method; format: functional
[2] = system: Staphylococcus aureus; assay: Antibacterial activity against Staphylococcus aureus CIP 54127 assessed as reduction in bacterial growth by micro-broth dilution method; format: functional
[3] = system: Zika virus; assay: Antiviral activity against Zika virus infected in african green monkey Vero E6 cells assessed as inhibition of cytopathic effect by microscopy based analysis; format: functional, organism-based; conditions: Vero C1008
[4] = system: Enterococcus faecalis; assay: Ratio of MBC to MIC for Enterococcus faecalis; format: functional
[5] = Cytotoxicity against African green monkey Vero A cells; format: toxicity, cell-based; conditions: chlorocebus sabaeus
[6] = system: Yellow fever virus; assay: Antiviral activity against Yellow fever virus infected in human Huh-7 cells assessed as inhibition of cytopathic effect by microscopy based analysis; format: functional, organism-based
[7] = system: Enterococcus faecalis; assay: Antibacterial activity against Enterococcus faecalis assessed as reduction in bacterial growth by micro-broth dilution method; format: functional
[8] = system: Escherichia coli; assay: Bactericidal activity against Escherichia coli CIP 53154; format: functional
[9] = system: Staphylococcus aureus; assay: Ratio of MBC to MIC for Staphylococcus aureus CIP 54127; format: functional
[10] = system: Escherichia coli; assay: Ratio of MBC to MIC for Escherichia coli CIP 53154; format: functional
[11] = system: Pseudomonas aeruginosa; assay: Bactericidal activity against Pseudomonas aeruginosa CIP A22; format: functional
[12] = system: Enterovirus A71; assay: Antiviral activity against human EV71 infected in human RD cells assessed as inhibition of cytopathic effect by microscopy based analysis; format: functional, organism-based; conditions: Enterovirus A
[13] = system: Enterococcus faecalis; assay: Bactericidal activity against Enterococcus faecalis; format: functional
[14] = system: Human rhinovirus sp.; assay: Antiviral activity against Human rhinovirus A2 infected in human HeLa-RH cells assessed as inhibition of cytopathic effect by microscopy based analysis; format: functional, organism-based
[15] = system: Chikungunya virus; assay: Antiviral activity against CHIKV infected in African green monkey Vero A cells assessed as inhibition of cytopathic effect by microscopy based analysis; format: functional, organism-based
[16] = Cytotoxicity against human Huh-7 cells; format: toxicity, cell-based
[17] = Cytotoxicity against human HeLa-RH cells; format: toxicity, cell-based
[18] = system: Pseudomonas aeruginosa; assay: Ratio of MBC to MIC for Pseudomonas aeruginosa CIP A22; format: functional
[19] = Cytotoxicity against human RD cells; format: toxicity, cell-based
[20] = system: Human rhinovirus sp.; assay: Antiviral activity against Human rhinovirus B14 infected in human HeLa-RH cells assessed as inhibition of cytopathic effect by microscopy based analysis; format: functional, organism-based
[21] = system: Staphylococcus aureus; assay: Bactericidal activity against Staphylococcus aureus CIP 54127; format: functional
[22] = Cytotoxicity against African green monkey Vero E6 cells; format: toxicity, cell-based, Vero C1008; conditions: chlorocebus sabaeus
[23] = system: Escherichia coli; assay: Antibacterial activity against Escherichia coli CIP 53154 assessed as reduction in bacterial growth by micro-broth dilution method; format: functional
[24] = Selectivity index, ratio of CC50 for African green monkey Vero A cells to IC50 for CHIKV infected in African green monkey Vero A cells; format: toxicity; conditions: read-out: Ratio CC50/IC50

SMILES | MIC [1] | MIC [2] | IC50 [3] | Ratio [4] | CC50 [5] | IC50 [6] | MIC [7] | MBC [8] | Ratio [9] | Ratio [10] | MBC [11] | IC50 [12] | MBC [13] | IC50 [14] | IC50 [15] | CC50 [16] | CC50 [17] | Ratio [18] | CC50 [19] | IC50 [20] | also measured
CCOP(=O)(OCC)C(Nc1ccccc1)c1cc(Cn2cc(Cn3c(=O)cc(C)c4cc(F)ccc43)nn2)ccc1O (centres undefined) | 8260 µM (≈ 5000 µg/mL) | 510 µM (≈ 309 µg/mL) | > 100 µM | 1 | > 100 µM | > 100 µM | 2060 µM (≈ 1250 µg/mL) | 1040 µM (≈ 630 µg/mL) | 2.04 | 1 | 8260 µM (≈ 5000 µg/mL) | > 100 µM | 2060 µM (≈ 1250 µg/mL) | > 1.23 µM | > 100 µM | 46.2 µM | > 100 µM | 2 | > 100 µM | > 100 µM | MBC [21]: 1040 µM (≈ 630 µg/mL); CC50 [22]: > 33.3 µM; MIC [23]: 1040 µM (≈ 630 µg/mL)
CCOP(=O)(OCC)C(Nc1ccc(F)cc1)c1cc(Cn2cc(Cn3c(=O)cc(C)c4cc(Br)ccc43)nn2)ccc1O (centres undefined) | 1830 µM (≈ 1250 µg/mL) | 450 µM (≈ 308 µg/mL) | > 100 µM | 1 | 25.8 µM | > 100 µM | 60 µM (≈ 41.1 µg/mL) | 920 µM (≈ 630 µg/mL) | 1 | 1 | 1830 µM (≈ 1250 µg/mL) | > 100 µM | 60 µM (≈ 41.1 µg/mL) | > 0.41 µM | 6.8 µM | 22.2 µM | 20.9 µM | 1 | > 100 µM | > 33.3 µM | selectivity ratio [24]: 3.79; MBC [21]: 450 µM (≈ 308 µg/mL); CC50 [22]: > 33.3 µM; MIC [23]: 920 µM (≈ 630 µg/mL)
CCOP(=O)(OCC)C(Nc1ccccc1OC)c1cc(Cn2cc(Cn3c(=O)cc(C)c4cc(F)ccc43)nn2)ccc1O (centres undefined) | 1970 µM (≈ 1250 µg/mL) | 250 µM (≈ 159 µg/mL) | > 100 µM | 1 | 40.8 µM | > 100 µM | 60 µM (≈ 38.1 µg/mL) | 1970 µM (≈ 1250 µg/mL) | 1.96 | 1 | 1970 µM (≈ 1250 µg/mL) | > 100 µM | 60 µM (≈ 38.1 µg/mL) | > 1.23 µM | > 100 µM | 88 µM | > 100 µM | 1.99 | > 100 µM | > 100 µM | MBC [21]: 490 µM (≈ 311 µg/mL); CC50 [22]: > 33.3 µM; MIC [23]: 1970 µM (≈ 1250 µg/mL)
Cc1cc(=O)n(Cc2cn(Cc3ccc(O)c(C=O)c3)nn2)c2ccccc12 | 26700 µM (≈ 10000 µg/mL) | 210 µM (≈ 78.6 µg/mL) | > 100 µM | 1 | > 100 µM | > 100 µM | 110 µM (≈ 41.2 µg/mL) | 830 µM (≈ 311 µg/mL) | 1 | 1.93 | 26700 µM (≈ 10000 µg/mL) | > 33.3 µM | 110 µM (≈ 41.2 µg/mL) | > 1.23 µM | 95.7 µM | 37.5 µM | 11.4 µM | 2 | 27.1 µM | > 100 µM | selectivity ratio [24]: > 1.05; MBC [21]: 210 µM (≈ 78.6 µg/mL); CC50 [22]: 57.5 µM; MIC [23]: 430 µM (≈ 161 µg/mL)
